From paper PMC3863970 (Nature Communications, 2013)
Entries after “also recorded” stand apart in the source; their conditions may differ.

What was measured:
rSH/1:AH/1-NA virus = tested on: rSH/1:AH/1-NA virus; set-up: species or system influenza A(H7N9) virus; conditions: in vivo
rSH/1 virus = tested on: rSH/1 virus; set-up: species or system influenza A(H7N9) virus; conditions: in vivo

CC(=O)N[C@H]1[C@H]([C@H](O)[C@H](O)CO)OC(C(=O)O)=C[C@@H]1N=C(N)N [Zanamivir, zanamivir]
viral lung titres compared with mice treated with vehicle only (rSH/1:AH/1-NA virus): significantly reduced | viral lung titres compared with mice treated with vehicle only (rSH/1 virus): significantly reduced

CCOC(=O)C1=C[C@@H](OC(CC)CC)[C@H](NC(C)=O)[C@@H](N)C1 [Oseltamivir, oseltamivir]
reduction in viral lung titres (rSH/1:AH/1-NA virus; po): 1 log | effect on viral lung titres (rSH/1 virus; po): no effect; also recorded: does not suppress H7N9 virus replication
